Data as given in patent publication US8574893B2, “Nucleic acid cleavage complex and method for using the same” (National Cheng Kung University, priority 2010, dated 2013).

Tested on: pST3 test vector
Experiment: DNA cleavage test of the nucleic acid cleavage reagent in vitro
Type: biochemical
Experimental: First, the pST3 test vector of Test Example 1 is prepared. The abovementioned vector and the nucleic acid cleavage reagent (Cypate) are mixed in a molar ratio of 1:1000. […] Columns 5 and 6 of FIG. 5 show the position of the nucleic acid cleavage reagent (Cypate) in the gel.

CC1(C)C(/C=C/C=C/C=C/C=C2/N(CCC(=O)O)c3ccc4ccccc4c3C2(C)C)=[N+](CCC(=O)[O-])c2ccc3ccccc3c21 [Cypate, cypate]
cleavage of the plasmid to nicked open-circular plasmid (Form II plasmid) (vector:Cypate molar ratio 1:1000, irradiation for 5 mins, FIG. 5 column 8): partially cleaved
cleavage of the plasmid to nicked open-circular plasmid (Form II plasmid) (vector:Cypate molar ratio 1:1000, irradiation for 10 mins, FIG. 5 column 10): completely cleaved
